Laboratory results from patent US5266562A, “Anti-inflammatory agents” (The United States of America as represented by the …, priority 1987, dated 1993).
Read-outs that look alike come from different tables or passages of the source.

B1: Uteroglobin: protein purified from uterine washings of rabbits primed with chorionic gonadotropin; also known as blastokinin (protein, UniProt P02779 22-91, looked up)
Uteroglobin: GICPRFAHVIENLLLGTPSSYETSLKEFEPDDTMKDAGMQMKKVLDSLPQTTRENIMKLTEKIVKSPLCM

How the values were obtained:
[1] = test system: phorbol myristate acetate induced inflammation on rabbit skin; settings: for Histopathology: inflammatory cells in phorbol injected skin (in words) / Effect on phorbol induced erythema and induration (in words) / Erythema (mm), Phorbol injected / Induration (mm), Phorbol injected: rabbit skin; for Histopathology: inflammatory cells in phorbol injected skin (in words): 20 μM injected after phorbol, FIG. 3; for Erythema (mm), Phorbol injected / Induration (mm), Phorbol injected: phorbol myristate acetate 10 μM, 0.1 ml, test substance 20 μM, mean ± SEM
Method: Animals: Virgin New Zealand rabbits weighting 3-3.5 Kg were used for all experiments. These animals were housed in separate cages and provided with food and water ad libitum. A daily schedule of 12 hours light and 12 hours darkness was maintained throughout the experimental period.
Induction of inflammation and the effect of uteroglobin: The dorsal skin of rabbits was shaved and 1/2 square inch areas demarcated lightly with a felt tip marker pen. […] The demarcated areas were used for identifying the locations where phorbol, carragennin, or other test substances were injected. Using a 25 gauge needle and a tuberculin syringe (1 cc), phorbol myristate acetate solution (10 mM) was injected into all areas, except for two, where no injections were given and two other areas where the solvent of phorbol myristate, dimethyl sulfoxide (DMSO), was injected alone. Various test substances were injected on one side of the vertebral column and the opposite side was used for controls. Thus, in this system a comparison of phorbol induced inflammation with the effects of various test substances could easily be made. These areas were observed daily and the diameter of the erythema and induration for each lesion was measured by the same observer. […] These tissues were used for histopathological analysis.

[2] = test system: prostanoid levels (PGE2, PGF2α) in skin lesions; assay: Prostanoid levels (radioimmunoassay) in tissues injected with phorbol myristate acetate; format: in vivo, rabbit; settings: for Effect on tissue prostanoid levels (PGE2, PGF2α) (in words): rabbit skin lesions injected with phorbol; for Prostaglandin levels PGE2 / Prostaglandin levels PGF2 α: rabbit skin lesions, phorbol 10 μM then test substance 20 μM 0.1 ml after 5 minutes, mean of two experiments; for Prostaglandin levels PGF2 α: ND = Nondetectable
Method: These tissues were used for histopathological analysis.
A similar groups of animals were sacrificed 48 hours after the injections were made and the skin lesions were dissected out and homogenized in cold phosphate buffered saline (PBS, pH 7.4). The homogenate was centrifuged at 2500×g for 10 minutes at 4° C. The supernatants were frozen at -70° C. until assayed for prostaglandins.

[3] = equimolar concentrations, concentration not given

Erythema and induration induced by the substance itself (in words) ([1]; rabbit, in vivo)	Molecule	Histopathology: inflammatory cells in phorbol injected skin (in words) [1]	Effect on phorbol induced erythema and induration (in words) [1, 3]	Effect on tissue prostanoid levels (PGE2, PGF2α) (in words) [2]	Prostaglandin levels PGE2 [2]	Prostaglandin levels PGF2 α [2]	Erythema (mm), Phorbol injected [1]	Induration (mm), Phorbol injected [1]	Effect on phorbol induced erythema and induration (in words) ([1]; 10 μM, FIG. 4 dose response)	Effect on phorbol induced erythema and induration (in words) ([1]; 20 μM, FIG. 4 dose response)
	Myoglobin	did not have any inhibitory effect	did not have any suppressive effect							
induced some erythema and induration	CCCCC/C=C\C/C=C\C/C=C\C/C=C\CCCC(=O)O [arachidonic acid]									
	C[C@@H]1C[C@H]2[C@@H]3CCC4=CC(=O)C=C[C@]4(C)[C@@]3(F)[C@@H](O)C[C@]2(C)[C@@]1(O)C(=O)CO [Dexamethasone]	reduced the density of these inflammatory cells	dramatically reduced both erythema as well as induration	dramatically reduced these prostanoid levels	106 pg/mg protein	88 pg/mg protein	10.5 ± 1.2 mm	8.1 ± 2.0 mm		
	B1		dramatically reduced both erythema as well as induration	dramatically reduced these prostanoid levels	94 pg/mg protein	58 pg/mg protein	6.4 ± 0.5 mm	5.1 ± 0.8 mm	Significant inhibitory effect	most dramatic effect
